# In patent US9527887B2 (priority 2011, dated 2016):
# Where two headings read alike, the source gives them in different places. Where a SMILES comes first, the peptide text is derived from it. Bridges are numbered along the chain shown (N, C = ends).
# Columns and labels:
# GC-C [1] = molecular target: T1, GC-C (Homo sapiens, UniProt P25092); test: cell-based; details: 30 min at 37° C., IBMX
# GC-C [2] = molecular target: T1, GC-C; test: biochemical; assay type: binding
# [3] = after oral administration at therapeutic dose levels; cited from earlier work
# T1 sequence (P25092 24-1073 limits assumed): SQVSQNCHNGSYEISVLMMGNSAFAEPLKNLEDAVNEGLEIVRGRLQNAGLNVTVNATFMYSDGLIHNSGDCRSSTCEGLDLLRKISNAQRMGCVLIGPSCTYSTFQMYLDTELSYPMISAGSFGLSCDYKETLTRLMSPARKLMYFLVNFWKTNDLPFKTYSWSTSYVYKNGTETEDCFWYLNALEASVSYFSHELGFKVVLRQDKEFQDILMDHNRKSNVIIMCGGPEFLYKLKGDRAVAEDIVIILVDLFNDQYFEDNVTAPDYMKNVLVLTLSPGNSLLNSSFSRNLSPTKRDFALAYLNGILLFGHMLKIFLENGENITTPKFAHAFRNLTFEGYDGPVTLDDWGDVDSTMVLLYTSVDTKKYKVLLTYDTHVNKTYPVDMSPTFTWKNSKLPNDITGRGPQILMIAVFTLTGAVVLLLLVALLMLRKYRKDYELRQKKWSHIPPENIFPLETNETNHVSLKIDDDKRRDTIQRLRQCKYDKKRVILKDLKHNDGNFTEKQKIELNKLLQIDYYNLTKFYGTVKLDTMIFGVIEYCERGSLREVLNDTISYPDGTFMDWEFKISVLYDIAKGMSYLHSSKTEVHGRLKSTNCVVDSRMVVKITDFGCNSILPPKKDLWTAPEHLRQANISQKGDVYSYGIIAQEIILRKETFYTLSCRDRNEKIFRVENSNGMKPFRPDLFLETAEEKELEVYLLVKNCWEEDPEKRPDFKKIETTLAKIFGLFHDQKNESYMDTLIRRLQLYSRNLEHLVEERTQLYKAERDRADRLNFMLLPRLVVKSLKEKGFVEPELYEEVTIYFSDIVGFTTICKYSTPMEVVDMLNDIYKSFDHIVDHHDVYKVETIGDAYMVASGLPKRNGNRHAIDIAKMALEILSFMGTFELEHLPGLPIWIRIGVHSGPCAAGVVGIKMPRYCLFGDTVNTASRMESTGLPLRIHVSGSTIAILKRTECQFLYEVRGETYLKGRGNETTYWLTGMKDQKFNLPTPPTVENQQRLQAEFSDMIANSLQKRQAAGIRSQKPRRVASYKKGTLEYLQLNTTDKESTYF
smiles,measurement,setting,value
"CC(C)C[C@@H]1NC(=O)[C@H](CCC(=O)O)NC(=O)[C@@H]2CSSC[C@@H]3NC(=O)[C@H](C)NC(=O)[C@@H]4CCCN4C(=O)[C@H](CC(N)=O)NC(=O)[C@H](CSSC[C@H](NC(=O)[C@H](CC(=O)O)NC(=O)[C@H](CC(=O)O)NC(=O)[C@@H](N)CC(=O)O)C(=O)N2)NC(=O)[C@H](CSSC[C@@H](C(=O)N[C@@H](Cc2ccc(O)cc2)C(=O)O)NC(=O)CNC(=O)[C@H]([C@@H](C)O)NC3=O)NC1=O [Peptide 17, DDDCCELCCNPACTGCY]",EC50,"GC-C [1]; pH 5 (DMEM+20 mM MES), read-out: cGMP response in T84 cells EC50 nM pH 5",12.9 nM
same,EC50,"GC-C [1]; pH 8 (DMEM+50 mM sodium bicarbonate), read-out: cGMP response in T84 cells EC50 nM pH 8",4980 nM
same,Ki,GC-C [2]; Binding affinity for GC-C Ki (nM) pH 5,4.3 nM
same,Ki,GC-C [2]; Binding affinity for GC-C Ki (nM) pH 8,27.3 nM
"C[C@@H]1NC(=O)[C@@H]2CCCN2C(=O)[C@H](CC(N)=O)NC(=O)[C@@H]2CSSC[C@H](N)C(=O)N[C@H]3CSSC[C@H](NC1=O)C(=O)N[C@@H]([C@@H](C)O)C(=O)NCC(=O)N[C@H](C(=O)N[C@@H](Cc1ccc(O)cc1)C(=O)O)CSSC[C@H](NC(=O)[C@H](Cc1ccc(O)cc1)NC(=O)[C@H](CCC(=O)O)NC3=O)C(=O)N2 [linaclotide, Linaclotide] (H-CCEYCCNPACTGCY-OH; disulfide 1-6, 2-10, 5-13)",levels of linaclotide seen systemically,[3],no detectable levels
